Assay [1] concerns the target T1, hFASN enzyme (full length) (Homo sapiens, UniProt P49327).
T1 construct: 10 μL hFASN enzyme (full length, 300 ng, purified in house); made in house
As to the kind of experiment: Fatty Acid Synthase (FASN) Inhibition Scintillation Proximity Assay. It is filed as biochemical. The conditions noted are these: for IC50: mean where tested more than once, ~ = standard error of pIC50 larger than 0.5; for inhibition at 10 µM: read-out: FASN % Effect @1E−05M. A digest of the protocol: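 Eight compound concentrations (0.01–30 μM) tested in pH 7.5 phosphate buffer with DTT; human full-length enzyme converted [3H]-acetyl-CoA plus malonyl-CoA, with NADPH, over 60 min at room temperature. Hydrophobic [3H]-palmitate detected by bead proximity scintillation imaging; control-normalised data fitted for IC50/pIC50.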
In general terms: SPA uses beads or plates that emit light when radiolabelled molecules are held near them.

The target of assay [2] is T2, FASN Keto-reductase Domain (Homo sapiens, UniProt P49327).
T2 construct: 10 μL hFASN enzyme (full length, 300 ng, purified in house) and 360 μM NADPH; made in house
Nature of the assay: Fatty Acid Synthase Keto-Reductase Domain (FASN KR) Inhibition. It is filed as biochemical. The conditions noted are these: mean where tested more than once; read-out: FASN K-R Domain pIC50 (converted). The method in brief:
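Keto-reductase activity followed as NADPH consumption (A340 drop between 0 and 20 min, room temperature) using in-house full-length hFASN, 360 μM NADPH and ethyl acetoacetate substrate (180 mM stock), pH 7.5 phosphate buffer.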

For assay [3], the system named is A2780 ovarian cells. Nature of the assay: A2780 Ovarian Cell Proliferation Assay in Lipid Reduced Medium, without Palmitate. It is filed as cell-based. The conditions noted are these: Homo sapiens, A2780; lipid reduced medium, without palmitate, 96 h, MTT; read-out: Proliferation A2780 w/o Palmitate pIC50 (converted). The method in brief:
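A2780 cells were seeded in 10% FCS medium and switched next day to 10% lipid-reduced serum without palmitate. Compounds at 0.01–30 μM were added with 0.2% DMSO, 0.2% fatty-acid-free BSA and 0.25% ethanol final. After 96 h, MTT absorbance at 544 nm was normalized to plate controls, and IC50/pIC50 came from a 4-parameter logistic fit.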

For assay [4], the system named is A2780 ovarian cells. As to the kind of experiment: A2780 Ovarian Cell Proliferation Assay in Lipid Reduced Medium, with Palmitate (control). Type of assay: cell-based. The conditions noted are these: Homo sapiens, A2780; lipid reduced medium, 25 μM palmitate, 96 h, MTT; read-out: Proliferation A2780 with Palmitate pIC50 (converted). A digest of the protocol:
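Read-out was MTT absorbance at 544 nm after 96 h at 37 °C. Cells grown overnight in RPMI1640/10% FCS were moved to 10% lipid-reduced serum with compound plus palmitate (final 25 μM, 0.2% fatty-acid-free BSA, 0.2% DMSO). IC50 came from least-squares curve fitting, expressed as −log(IC50).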

T1 sequence (P49327 whole entry): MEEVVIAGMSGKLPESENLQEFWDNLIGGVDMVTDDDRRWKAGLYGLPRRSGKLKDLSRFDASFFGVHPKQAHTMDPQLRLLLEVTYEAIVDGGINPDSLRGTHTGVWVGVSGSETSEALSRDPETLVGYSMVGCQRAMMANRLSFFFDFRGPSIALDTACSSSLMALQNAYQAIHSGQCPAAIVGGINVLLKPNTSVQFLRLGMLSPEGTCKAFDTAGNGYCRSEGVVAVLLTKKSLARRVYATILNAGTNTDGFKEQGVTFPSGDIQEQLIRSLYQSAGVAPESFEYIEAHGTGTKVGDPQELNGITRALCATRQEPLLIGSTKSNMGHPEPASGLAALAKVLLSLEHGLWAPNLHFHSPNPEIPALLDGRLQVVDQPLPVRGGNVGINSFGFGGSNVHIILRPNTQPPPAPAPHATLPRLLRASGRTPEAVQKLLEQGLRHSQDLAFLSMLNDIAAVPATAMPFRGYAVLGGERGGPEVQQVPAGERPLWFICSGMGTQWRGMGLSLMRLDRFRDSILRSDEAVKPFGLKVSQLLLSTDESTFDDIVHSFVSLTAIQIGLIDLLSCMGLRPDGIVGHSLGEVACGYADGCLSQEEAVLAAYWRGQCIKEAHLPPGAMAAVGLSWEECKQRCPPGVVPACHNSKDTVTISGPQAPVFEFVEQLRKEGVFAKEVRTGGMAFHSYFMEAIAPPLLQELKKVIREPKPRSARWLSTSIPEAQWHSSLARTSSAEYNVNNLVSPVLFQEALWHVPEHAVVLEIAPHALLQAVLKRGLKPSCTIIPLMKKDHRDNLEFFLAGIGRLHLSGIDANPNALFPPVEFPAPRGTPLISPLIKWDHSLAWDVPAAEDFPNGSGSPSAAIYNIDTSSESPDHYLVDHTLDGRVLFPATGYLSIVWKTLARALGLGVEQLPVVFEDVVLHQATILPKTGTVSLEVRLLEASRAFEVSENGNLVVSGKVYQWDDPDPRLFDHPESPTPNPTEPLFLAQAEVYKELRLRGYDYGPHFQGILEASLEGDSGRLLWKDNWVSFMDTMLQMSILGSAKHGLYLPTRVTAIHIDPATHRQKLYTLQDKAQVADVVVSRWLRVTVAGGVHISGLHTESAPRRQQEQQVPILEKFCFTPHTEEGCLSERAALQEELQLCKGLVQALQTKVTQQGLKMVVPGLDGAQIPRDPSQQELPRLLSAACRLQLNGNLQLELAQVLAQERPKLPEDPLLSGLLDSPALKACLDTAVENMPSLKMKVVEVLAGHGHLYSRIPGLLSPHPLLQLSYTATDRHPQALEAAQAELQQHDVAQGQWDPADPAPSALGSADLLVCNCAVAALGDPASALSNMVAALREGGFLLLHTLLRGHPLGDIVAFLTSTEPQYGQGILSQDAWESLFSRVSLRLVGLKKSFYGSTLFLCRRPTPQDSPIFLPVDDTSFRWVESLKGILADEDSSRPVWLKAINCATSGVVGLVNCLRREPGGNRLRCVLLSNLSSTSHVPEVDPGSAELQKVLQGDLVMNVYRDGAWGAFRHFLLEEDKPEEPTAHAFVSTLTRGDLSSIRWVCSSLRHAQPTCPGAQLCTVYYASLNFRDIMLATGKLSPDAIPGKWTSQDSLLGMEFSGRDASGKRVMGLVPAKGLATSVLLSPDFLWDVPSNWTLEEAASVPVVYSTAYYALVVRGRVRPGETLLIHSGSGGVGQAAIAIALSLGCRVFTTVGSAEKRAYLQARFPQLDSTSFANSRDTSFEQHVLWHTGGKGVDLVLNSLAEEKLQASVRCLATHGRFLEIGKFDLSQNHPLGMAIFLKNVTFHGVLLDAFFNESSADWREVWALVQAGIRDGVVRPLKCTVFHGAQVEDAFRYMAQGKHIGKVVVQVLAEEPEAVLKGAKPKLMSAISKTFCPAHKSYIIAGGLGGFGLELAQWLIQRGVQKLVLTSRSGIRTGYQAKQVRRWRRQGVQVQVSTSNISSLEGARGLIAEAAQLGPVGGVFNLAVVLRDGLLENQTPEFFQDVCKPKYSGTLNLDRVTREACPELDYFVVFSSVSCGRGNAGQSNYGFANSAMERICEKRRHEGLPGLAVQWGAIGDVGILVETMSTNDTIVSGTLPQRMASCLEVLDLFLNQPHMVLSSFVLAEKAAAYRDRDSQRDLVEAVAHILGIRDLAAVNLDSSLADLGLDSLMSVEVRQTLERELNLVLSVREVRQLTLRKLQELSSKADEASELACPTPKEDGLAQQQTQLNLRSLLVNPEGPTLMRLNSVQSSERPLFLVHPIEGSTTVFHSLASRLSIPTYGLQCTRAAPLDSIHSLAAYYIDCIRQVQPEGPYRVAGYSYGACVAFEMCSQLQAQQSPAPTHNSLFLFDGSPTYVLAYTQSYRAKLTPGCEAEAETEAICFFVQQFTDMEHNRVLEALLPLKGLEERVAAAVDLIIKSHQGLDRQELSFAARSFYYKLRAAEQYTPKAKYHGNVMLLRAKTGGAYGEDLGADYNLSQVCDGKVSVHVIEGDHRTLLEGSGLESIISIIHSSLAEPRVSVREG
T2 sequence (P49327 whole entry, the tested form may be a part): as the sequence (P49327 whole entry) above

Consider `Cc1ccc(C(=O)N2CCC(c3ccc(-c4cnn(C)c4)cc3)CC2)cc1NC(=O)C1CCCO1` (stereo not shown) [Compound 151, N-(2-methyl-5-(4-(4-(1-methyl-1H-pyrazol-4-yl)phenyl)piperidine-1-carbonyl)phenyl)tetrahydrofuran-2-carboxamide], for which the IC50 in assay [1] is 148 nM; in assay [2], 708 nM; in the assay on A2780 ovarian cells [3], 1170 nM; with A2780 ovarian cells [4], > 10000 nM. Also, the inhibition at 10 µM in assay [1] is 101%.
Turning to `Cc1ccc(C(=O)N2CCC(c3ccc(-c4cnn(C)c4)cc3)CC2)cc1NC(=O)C1CCN(Cc2ccccc2)CC1` [Compound 124, 1-benzyl-N-(2-methyl-5-(4-(4-(1-methyl-1H-pyrazol-4-yl)phenyl)piperidine-1-carbonyl)phenyl)piperidine-4-carboxamide], the IC50 in assay [1] is 25.7 nM; in assay [2], 81.3 nM; in the assay with A2780 ovarian cells [3] it was 33.9 nM; in the assay on A2780 ovarian cells [4] it was 5370 nM. In assay [1], the inhibition at 10 µM worked out at 105%.
The like results for `Cc1ccc(C(=O)N2CCC(c3ccc(-c4cnn(C)c4)cc3)CC2)cc1NC(=O)[C@@H]1CCCN1` [Compound 171, (S)—N-(2-methyl-5-(4-(4-(1-methyl-1H-pyrazol-4-yl)phenyl)piperidine-1-carbonyl)phenyl)pyrrolidine-2-carboxamide] were, in that order, 891 nM, 1000 nM, 1200 nM, > 10000 nM and 84%.
The matching figures for `Cc1ccc(C(=O)N2CCC(c3ccc(-c4cnn(C)c4)cc3)CC2)cc1NC(=O)c1ccc(NC2CCC2)nc1` [Compound 134, 6-(cyclobutylamino)-N-(2-methyl-5-(4-(4-(1-methyl-1H-pyrazol-4-yl)phenyl)piperidine-1-carbonyl)phenyl)nicotinamide]: 57.5 nM, 52.5 nM, ~38 nM, > 10000 nM and 111%.
The matching figures for `Cc1ccc(C(=O)N2CCC(c3ccc(-c4cnn(C)c4)cc3)CC2)cc1NC(=O)C1CCN(C)CC1` [Compound 169, 1-methyl-N-(2-methyl-5-(4-(4-(1-methyl-1H-pyrazol-4-yl)phenyl)piperidine-1-carbonyl)phenyl)piperidine-4-carboxamide]: 70.8 nM, 191 nM, 77.6 nM, > 10000 nM and 106%.
In the case of `Cc1ccc(C(=O)N2CCC(c3ccc(-c4cnn(C)c4)cc3)CC2)cc1NC(=O)C1CN(C2CCCC2)C1` [Compound 187, 1-cyclopentyl-N-(2-methyl-5-(4-(4-(1-methyl-1H-pyrazol-4-yl)phenyl)piperidine-1-carbonyl)phenyl)azetidine-3-carboxamide], the IC50 in assay [1] was 141 nM; in assay [2], 302 nM; in the assay on A2780 ovarian cells [3], ~282 nM; in the assay with A2780 ovarian cells [4], > 10000 nM. The inhibition at 10 µM in assay [1] amounted to 103%.
As for `Cc1ccc(C(=O)N2CCC(c3ccc(-c4cnn(C)c4)cc3)CC2)cc1NC(=O)[C@H]1CCCN1` [Compound 172, (R)—N-(2-methyl-5-(4-(4-(1-methyl-1H-pyrazol-4-yl)phenyl)piperidine-1-carbonyl)phenyl)pyrrolidine-2-carboxamide], the IC50 in assay [1] was 490 nM; in assay [2], 741 nM; in the assay with A2780 ovarian cells [3], 794 nM; in the assay on A2780 ovarian cells [4], > 10000 nM. Besides, the inhibition at 10 µM in assay [1] was 91%.
The matching figures for `Cc1ccc(C(=O)N2CCC(c3ccc(-c4cnn(C)c4)cc3)CC2)cc1NC(=O)c1ccc2[nH]ccc2c1` [Compound 160, N-(2-methyl-5-(4-(4-(1-methyl-1H-pyrazol-4-yl)phenyl)piperidine-1-carbonyl)phenyl)-1H-indole-5-carboxamide]: 40.7 nM, 91.2 nM, 28.2 nM, 6920 nM and 100%.
The matching figures for `COc1ccc(C(=O)Nc2cc(C(=O)N3CCC(c4ccc(-c5cnn(C)c5)cc4)CC3)ccc2C)cc1Cl` [Compound 155, 3-chloro-4-methoxy-N-(2-methyl-5-(4-(4-(1-methyl-1H-pyrazol-4-yl)phenyl)piperidine-1-carbonyl)phenyl)benzamide]: 47.9 nM, 93.3 nM, 85.1 nM, > 10000 nM and 98%.
In the case of `Cc1ccc(C(=O)N2CCC(c3ccc(-c4ccoc4)cc3)CC2)cc1NC(=O)c1ccc(NC(C)C)nc1` [Compound 235, N-(5-(4-(4-(furan-3-yl)phenyl)piperidine-1-carbonyl)-2-methylphenyl)-6-(isopropylamino)nicotinamide], the IC50 in assay [1] is 53.7 nM; in assay [2], 102 nM; in the assay with A2780 ovarian cells [3], 74.1 nM; with A2780 ovarian cells [4], 1580 nM. Besides, in assay [1], the inhibition at 10 µM was determined as 112%.
The like results for `CC(C)Nc1ccc(C(=O)Nc2cc(C(=O)N3CC(c4ccc(-c5cnn(C)c5)cc4)C3)ccc2Cl)cn1` [Compound 65, N-(2-chloro-5-(3-(4-(1-methyl-1H-pyrazol-4-yl)phenyl)azetidine-1-carbonyl)phenyl)-6-(isopropylamino)nicotinamide] were, in that order, 20.9 nM, 28.8 nM, 56.2 nM, > 10000 nM and 99%.
The like results for `Cc1ccc(C(=O)N2CCC(c3ccc(-c4ccc(F)cc4)cc3)CC2)cc1NC(=O)c1ccc(NC(C)C)nc1` [Compound 250, N-(5-(4-(4′-fluoro-[1,1′-biphenyl]-4-yl)piperidine-1-carbonyl)-2-methylphenyl)-6-(isopropylamino)nicotinamide] were, in that order, 229 nM, 209 nM, 490 nM, 1620 nM and 65%.
The like results for `Cc1ccc(C(=O)N2CCC(c3ccc(-c4cnn(C)c4)cc3)CC2)cc1NC(=O)c1ccc(N(C)C)cn1` [Compound 119, 5-(dimethylamino)-N-(2-methyl-5-(4-(4-(1-methyl-1H-pyrazol-4-yl)phenyl)piperidine-1-carbonyl)phenyl)picolinamide] were, in that order, 64.6 nM, 141 nM, 191 nM, 6460 nM and 98%.
With `Cc1ccc(C(=O)N2CCC(c3ccc(-c4cnn(C)c4)cc3)CC2)cc1NC(=O)C1CN(C(C)C)C1` [Compound 206, 1-isopropyl-N-(2-methyl-5-(4-(4-(1-methyl-1H-pyrazol-4-yl)phenyl)piperidine-1-carbonyl)phenyl)azetidine-3-carboxamide], the IC50 is 158 nM in assay [1], 457 nM in assay [2], 151 nM in the assay on A2780 ovarian cells [3] and > 10000 nM in the assay on A2780 ovarian cells [4]. The inhibition at 10 µM in assay [1] turned out to be 99%.
The matching figures for `CCCN1CCC(C(=O)Nc2cc(C(=O)N3CCC(c4ccc(-c5cnn(C)c5)cc4)CC3)ccc2C)C1` (stereo not shown) [Compound 186, N-(2-methyl-5-(4-(4-(1-methyl-1H-pyrazol-4-yl)phenyl)piperidine-1-carbonyl)phenyl)-1-propylpyrrolidine-3-carboxamide]: 95.5 nM, 331 nM, ~195 nM, > 10000 nM and 106%.
The like results for `Cc1ccc(C(=O)N2CCC(c3ccc(-c4cnn(C)c4)nc3)CC2)cc1NC(=O)c1ccc(NC(C)C)nc1` [Compound 268, 6-(isopropylamino)-N-(2-methyl-5-(4-(6-(1-methyl-1H-pyrazol-4-yl)pyridin-3-yl)piperidine-1-carbonyl)phenyl)nicotinamide] were, in that order, 166 nM, 1350 nM, 537 nM, > 10000 nM and 104%.
The like results for `Cc1ccc(C(=O)N2CCC(c3ccc(-c4cnn(C)c4)cc3)CC2)cc1NC(=O)c1ccc(C(C)C)cc1` [Compound 148, 4-isopropyl-N-(2-methyl-5-(4-(4-(1-methyl-1H-pyrazol-4-yl)phenyl)piperidine-1-carbonyl)phenyl)benzamide] were, in that order, 47.9 nM, 53.7 nM, 89.1 nM, 8320 nM and 102%.

These data come from patent US9562035B2, “Benzamide derivative useful as FASN inhibitors for the treatment of cancer” (Janssen Pharmaceutica NV, priority 2013, dated 2017).
